Source: patent US12195463B2 (priority 2018, dated 2025)

How the values were obtained:
[1] = target: SERT (Homo sapiens, UniProt P31645); assay: biochemical; assay type: binding
[2] = target: D1 (Homo sapiens, UniProt P21728); details: qualitative statement
[3] = target: D2 (Homo sapiens, UniProt P14416); details: qualitative statement
Chain of D2 (P14416 1-414 isoform P14416-2): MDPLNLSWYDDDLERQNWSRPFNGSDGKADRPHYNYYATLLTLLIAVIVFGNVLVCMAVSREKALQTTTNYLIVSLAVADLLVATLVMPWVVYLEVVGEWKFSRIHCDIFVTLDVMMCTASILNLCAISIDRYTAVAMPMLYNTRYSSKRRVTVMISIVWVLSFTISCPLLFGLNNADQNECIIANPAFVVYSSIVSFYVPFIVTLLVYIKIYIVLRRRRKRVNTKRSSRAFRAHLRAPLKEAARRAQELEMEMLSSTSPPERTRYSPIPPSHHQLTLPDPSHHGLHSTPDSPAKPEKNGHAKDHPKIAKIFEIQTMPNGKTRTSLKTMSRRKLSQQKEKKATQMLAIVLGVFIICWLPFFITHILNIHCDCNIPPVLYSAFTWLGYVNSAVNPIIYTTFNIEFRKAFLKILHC

Chain of SERT (P31645 whole entry, species assumed): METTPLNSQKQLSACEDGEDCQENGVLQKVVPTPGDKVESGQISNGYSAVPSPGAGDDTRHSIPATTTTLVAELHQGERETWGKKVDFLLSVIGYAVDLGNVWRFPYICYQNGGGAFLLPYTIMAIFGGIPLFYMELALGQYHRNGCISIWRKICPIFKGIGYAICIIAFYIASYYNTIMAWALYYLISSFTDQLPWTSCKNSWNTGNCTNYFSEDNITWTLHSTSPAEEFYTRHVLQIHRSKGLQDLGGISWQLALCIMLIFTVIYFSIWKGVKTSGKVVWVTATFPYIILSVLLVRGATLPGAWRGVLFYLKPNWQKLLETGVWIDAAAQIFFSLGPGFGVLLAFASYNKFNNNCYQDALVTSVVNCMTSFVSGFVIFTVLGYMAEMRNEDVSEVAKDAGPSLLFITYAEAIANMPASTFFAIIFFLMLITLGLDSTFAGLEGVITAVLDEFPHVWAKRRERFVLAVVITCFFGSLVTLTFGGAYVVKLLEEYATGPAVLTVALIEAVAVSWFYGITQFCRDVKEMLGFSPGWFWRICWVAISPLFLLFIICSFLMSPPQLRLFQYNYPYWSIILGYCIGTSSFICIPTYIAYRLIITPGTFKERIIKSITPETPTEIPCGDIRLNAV
Chain of D1 (P21728 whole entry): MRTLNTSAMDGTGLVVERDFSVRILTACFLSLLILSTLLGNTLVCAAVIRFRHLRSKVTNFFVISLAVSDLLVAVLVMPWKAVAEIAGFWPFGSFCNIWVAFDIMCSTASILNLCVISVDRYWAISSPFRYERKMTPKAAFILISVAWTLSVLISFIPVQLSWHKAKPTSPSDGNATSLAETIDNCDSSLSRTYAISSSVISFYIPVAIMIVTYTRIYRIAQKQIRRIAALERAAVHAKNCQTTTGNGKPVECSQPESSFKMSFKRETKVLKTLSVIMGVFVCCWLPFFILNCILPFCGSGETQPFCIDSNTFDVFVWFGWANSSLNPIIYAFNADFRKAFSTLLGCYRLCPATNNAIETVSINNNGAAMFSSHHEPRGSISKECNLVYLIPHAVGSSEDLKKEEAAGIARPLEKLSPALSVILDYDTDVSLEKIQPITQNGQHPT

| SMILES | Ki ([1]; read-out: Ki (nM) or maximum inhibition) | SERT activity, in words ([1]; qualitative statement) | D1 receptor binding, in words [2] | D2 affinity, in words [3] |
| --- | --- | --- | --- | --- |
| O=C1CN2c3c(cccc3[C@@H]3CN(CCCOc4ccc(F)cc4)CC[C@@H]32)N1 [Compound A, reference compound] | ≤ 600 nM |  |  |  |
| O=C1CN2c3c(cccc3[C@H]3CN(CCCOc4ccc(F)cc4)CC[C@H]32)N1 [Example 1, (6bS,10aR)-8-(3-(4-fluorophenoxy)propyl)-6b,7,8,9,10,10a-hexahydro-1H-pyrido[3′,4′:4,5]pyrrolo[1,2,3-de]quinoxalin-2(3H)-one] |  | no SERT activity | moderately strong D1 receptor binding | weak D2 affinity |
